Assay results: publication PMC10120462, “Styrylquinazoline derivatives as ABL inhibitors selective for different DFG orientations” (Journal of Enzyme Inhibition and Medicinal Chemistry, 2023)
“Also recorded” adds a separate entry of the source.

How the values were obtained:
Fyn A = target: T1, Fyn A (Homo sapiens, UniProt P06241); assay: Tyrosine kinase assay (Kinase Selectivity System TK-2, ADP-Glo); format: biochemical; conditions: 1 h incubation, mean ± SD of four experiments
T1 construct: purchased Promega
T1 sequence (P06241 whole entry): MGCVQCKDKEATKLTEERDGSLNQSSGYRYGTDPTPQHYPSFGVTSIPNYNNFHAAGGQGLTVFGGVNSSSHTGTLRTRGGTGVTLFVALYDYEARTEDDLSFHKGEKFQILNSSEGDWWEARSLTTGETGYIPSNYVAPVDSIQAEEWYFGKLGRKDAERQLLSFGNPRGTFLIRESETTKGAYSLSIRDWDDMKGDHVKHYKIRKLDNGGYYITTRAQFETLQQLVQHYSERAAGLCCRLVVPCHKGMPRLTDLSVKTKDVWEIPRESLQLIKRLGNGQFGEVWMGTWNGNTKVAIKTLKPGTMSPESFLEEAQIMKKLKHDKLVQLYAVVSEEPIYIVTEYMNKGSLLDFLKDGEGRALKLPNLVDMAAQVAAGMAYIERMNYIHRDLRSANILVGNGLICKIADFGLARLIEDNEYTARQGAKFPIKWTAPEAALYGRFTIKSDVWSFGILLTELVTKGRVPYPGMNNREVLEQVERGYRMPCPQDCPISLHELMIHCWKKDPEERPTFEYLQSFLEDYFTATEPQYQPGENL
Procedure, shortened: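 Full-length, unphosphorylated non-receptor tyrosine kinases with regulatory domains, supplemented with ATP and incubated 1 h with peptide substrate. ADP formation read by ADP-Glo luminescence. Values are percent kinase inhibition from at least four experiments.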

Lyn B = target: T2, Lyn B (Homo sapiens, UniProt P07948); assay: as above; format: biochemical; conditions: 1 h incubation, mean ± SD of four experiments
T2 construct: purchased Promega
T2 sequence (P07948 1-491 isoform P07948-2): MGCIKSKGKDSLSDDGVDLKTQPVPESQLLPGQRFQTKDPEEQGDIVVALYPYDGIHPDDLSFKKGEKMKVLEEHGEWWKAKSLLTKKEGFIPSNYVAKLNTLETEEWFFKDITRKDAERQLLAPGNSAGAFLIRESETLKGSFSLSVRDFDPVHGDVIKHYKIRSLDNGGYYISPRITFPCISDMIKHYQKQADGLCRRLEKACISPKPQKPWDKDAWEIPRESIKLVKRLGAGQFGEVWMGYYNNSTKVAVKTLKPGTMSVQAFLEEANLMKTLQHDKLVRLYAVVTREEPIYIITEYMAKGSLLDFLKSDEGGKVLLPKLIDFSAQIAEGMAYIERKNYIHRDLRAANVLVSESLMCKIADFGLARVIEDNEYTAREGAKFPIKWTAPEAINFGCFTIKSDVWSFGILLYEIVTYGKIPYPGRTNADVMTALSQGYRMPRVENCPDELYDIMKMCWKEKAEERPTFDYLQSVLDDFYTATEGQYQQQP

BRK = target: T3, BRK (Homo sapiens, UniProt Q13882); assay: as above; format: biochemical; conditions: 1 h incubation, mean ± SD of four experiments
T3 construct: purchased Promega
T3 sequence (Q13882 whole entry): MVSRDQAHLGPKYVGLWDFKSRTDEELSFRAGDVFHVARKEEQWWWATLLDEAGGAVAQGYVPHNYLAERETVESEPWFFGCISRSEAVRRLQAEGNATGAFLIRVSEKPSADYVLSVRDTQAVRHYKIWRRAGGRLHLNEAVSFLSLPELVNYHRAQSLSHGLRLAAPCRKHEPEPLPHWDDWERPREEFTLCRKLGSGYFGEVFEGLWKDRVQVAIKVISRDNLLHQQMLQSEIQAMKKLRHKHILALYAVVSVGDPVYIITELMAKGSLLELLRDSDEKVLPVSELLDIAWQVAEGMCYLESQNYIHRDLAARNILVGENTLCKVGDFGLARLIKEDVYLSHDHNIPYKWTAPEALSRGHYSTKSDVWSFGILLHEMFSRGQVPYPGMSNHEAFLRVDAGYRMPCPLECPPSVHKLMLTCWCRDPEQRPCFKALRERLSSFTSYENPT

Lck = target: T4, Lck (Homo sapiens, UniProt P06239); assay: as above; format: biochemical; conditions: 1 h incubation, mean ± SD of four experiments
T4 construct: purchased Promega
T4 sequence (P06239 whole entry): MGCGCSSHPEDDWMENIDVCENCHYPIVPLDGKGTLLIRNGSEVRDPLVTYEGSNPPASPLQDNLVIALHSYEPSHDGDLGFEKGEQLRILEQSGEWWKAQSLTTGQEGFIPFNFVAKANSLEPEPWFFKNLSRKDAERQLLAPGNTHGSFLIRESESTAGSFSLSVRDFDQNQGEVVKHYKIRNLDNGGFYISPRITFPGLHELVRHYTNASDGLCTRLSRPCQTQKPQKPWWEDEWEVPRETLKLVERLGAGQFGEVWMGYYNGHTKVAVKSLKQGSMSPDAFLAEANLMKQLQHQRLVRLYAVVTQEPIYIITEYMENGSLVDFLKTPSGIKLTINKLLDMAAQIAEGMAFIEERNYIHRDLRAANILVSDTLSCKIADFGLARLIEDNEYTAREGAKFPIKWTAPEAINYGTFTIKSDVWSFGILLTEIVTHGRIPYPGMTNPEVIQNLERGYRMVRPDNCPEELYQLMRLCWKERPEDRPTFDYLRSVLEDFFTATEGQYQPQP

K562 cells [1] = assay: Immunoblotting; format: cell-based, human; conditions: 16 h; for STAT5 phosphorylation: at the concentrations used; for Inhibition of expression of Ser473 phosphorylated Akt / Cyclin E1 protein level: IS8 only at 25 µM; for Cyclin E1 protein level: IS10 40 and 20 µM
Text: Changes in the expression of the BCR-ABL and ABL proteins and their downstream targets, such as STAT5, Src, Akt and Fyn after treatment with the tested compounds were also examined. As shown in Figure 7(B), no significant changes in the phosphorylation of BCR-ABL were observed after treatment with the tested styrylquinazolines. […] For reference inhibitors, there were greater changes in the expression of this protein. There were also interesting changes in the downstream targets of ABL, STAT5 and Src. […] Unfortunately, contrary to our assumptions and earlier results, IS1 was ineffective in inhibiting ABL, STAT5, and Src phosphorylation at the concentrations used. However, this derivative caused downregulation of Fyn expression, which could confirm its high inhibitory potential from in vitro kinase assays. […] Thus, these compounds were capable of blocking the pro-survival pathway facilitated by Akt kinase.
Prior to the experiment, K562 cells were seeded at a density of 500,000 cells per well in 3 cm Petri dishes (Nunc). […] After 16 h of exposure, cells were collected, centrifuged, and lysed on ice in complete RIPA buffer containing Halt Protease Inhibitor Cocktail, Halt Phosphatase Inhibitor Cocktail and 0.5 M EDTA (all from Thermo Scientific). Protein quantification was measured using a BCA Protein Assay Kit (Thermo Scientific) according to the manufacturer’s protocol. Equal amounts of the proteins were electrophoresed on SDS-page gels and transferred to nitrocellulose membranes. After blocking in 5% non-fat milk prepared in TTBS (Tris buffered saline with Tween 20), membranes were incubated overnight at 4 °C with specific primary antibodies (all from Cell Signalling) at a dilution of 1:1000 for c-ABL, phospho-c-ABL, Stat5, phospho-Stat5, cyclin E1, p27, PARP, AIF, BID, Src, Fyn, Akt, phospho-Akt, and at a dilution of 1:2000 for reference proteins (vinculin, β-actin and GAPDH). The next day, membranes were washed and incubated with horseradish peroxidase (HRP)-conjugated secondary antibodies for 1 h at room temperature. Chemiluminescence signals were recorded after staining with SuperSignal™ West Pico Chemiluminescent Substrate (Thermo Scientific) using a ChemiDoc™ XRS + System (BioRad). Experiments were performed four to five times. Densitometric analysis was performed using ImageJ software (Wayne Rasband, National Institutes of Health, USA).

K562 cells [2] = assay: Analysis of mRNA expression (RT-qPCR); format: cell-based, human; conditions: 16 h; IS1 50 µM, IS8 12 µM, IS10 20 µM, imatinib 2 µM, GNF-2 2 µM
Text: In the next step, the inhibitory potential of the tested compounds at the gene and protein levels was verified in K562 cells. For this purpose, we examined changes in the expression of the ABL signalling pathway and ABL downstream targets after exposure to IS1, IS8 and IS10. […] The enhanced transcription of the ABL gene might be related to the low protein level that was reached after exposure to the tested drugs. Thus, the cellular machinery could induce increased protein synthesis to counteract the effects of inhibition. […] The second gene studied, SRC, is involved in signal transduction from growth factors and receptors. Similar to ABL, the Src protein has oncogenic activity and is overexpressed in cancer cells. It is also important to emphasise that both kinases form a specific direct signalling network, as […].
Reverse transcription was carried out with 1 μg total RNA using a ProtoScript M-MuLV First Strand cDNA Synthesis Kit (New England BioLabs). The RT-qPCR was performed using a CTX96 Real-Time PCR Detection System (Biorad) in a 10 μL reaction volume containing Luna Universal qPCR Master Mix (New England BioLabs), specific primer pair mix and cDNA. The PCR reaction was performed as follows: initial denaturation at 95 °C for 60 s; followed by 40 cycles of denaturation at 95 °C, 15 s; annealing (primer-specific temperature for 30 s) and extension at 72 °C for 30 s. Melting curve analysis was used to determine the specific PCR products. The results were analysed based on comparison of the expression of the target genes with the reference gene – HPRT1 using the 2^−^ΔΔ^CT method. Experiments were performed at least four times.

ABL = target: T5, ABL (Homo sapiens, UniProt P00519); assay: Pharmacological synergy on the ABL enzyme model (ABL1 Kinase Assay); format: biochemical; conditions: Chou-Talalay method
T5 construct: purchased Promega
T5 sequence (P00519 whole entry): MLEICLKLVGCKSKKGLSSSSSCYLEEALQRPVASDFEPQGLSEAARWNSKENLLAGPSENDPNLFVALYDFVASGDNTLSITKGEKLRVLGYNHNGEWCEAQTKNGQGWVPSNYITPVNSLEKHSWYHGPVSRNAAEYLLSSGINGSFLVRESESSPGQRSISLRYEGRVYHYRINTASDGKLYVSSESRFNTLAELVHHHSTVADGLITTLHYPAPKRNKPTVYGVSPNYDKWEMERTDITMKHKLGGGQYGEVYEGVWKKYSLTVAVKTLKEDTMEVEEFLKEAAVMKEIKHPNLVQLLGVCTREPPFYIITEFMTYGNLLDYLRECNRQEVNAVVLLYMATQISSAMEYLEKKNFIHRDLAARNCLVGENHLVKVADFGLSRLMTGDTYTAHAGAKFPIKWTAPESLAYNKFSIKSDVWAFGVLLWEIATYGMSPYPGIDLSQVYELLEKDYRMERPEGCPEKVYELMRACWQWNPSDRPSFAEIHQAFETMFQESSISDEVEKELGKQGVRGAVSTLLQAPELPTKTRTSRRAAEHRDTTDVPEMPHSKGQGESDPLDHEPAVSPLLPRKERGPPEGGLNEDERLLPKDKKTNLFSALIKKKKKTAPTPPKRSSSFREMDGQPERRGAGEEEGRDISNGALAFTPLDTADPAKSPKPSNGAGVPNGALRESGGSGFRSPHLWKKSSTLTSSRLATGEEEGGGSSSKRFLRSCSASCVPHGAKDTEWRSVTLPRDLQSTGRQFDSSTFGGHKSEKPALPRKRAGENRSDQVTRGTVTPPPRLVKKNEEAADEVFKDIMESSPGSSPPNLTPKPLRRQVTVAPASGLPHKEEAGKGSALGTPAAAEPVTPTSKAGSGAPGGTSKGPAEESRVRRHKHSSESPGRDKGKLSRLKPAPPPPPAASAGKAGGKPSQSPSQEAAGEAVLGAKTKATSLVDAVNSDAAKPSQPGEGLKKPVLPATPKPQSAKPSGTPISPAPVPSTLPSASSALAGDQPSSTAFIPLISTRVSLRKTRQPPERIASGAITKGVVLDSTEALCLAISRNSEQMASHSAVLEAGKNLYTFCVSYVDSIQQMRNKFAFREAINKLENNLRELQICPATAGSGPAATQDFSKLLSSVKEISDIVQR
Experimental: We selected the aforementioned reference inhibitors based on their different modes of interaction with the kinases. […] Thus, the results of this experiment may allow identification of the site where the IS1 inhibitor binds to ABL kinase.
Synergy experiments were performed analogously to our previous reports[36]^,[65]. Synergy was calculated by the Chou-Talay method (CompuSyn software)[66]^,[67]. Experiments were performed at least three times.

NC(=O)c1cccc(-c2cc(Nc3ccc(OC(F)(F)F)cc3)ncn2)c1 [GNF-2, reference compound]
inhibition at 0.5 µM (Fyn A): 0% | inhibition at 0.5 µM (Lyn B): 0% | inhibition at 0.5 µM (BRK): 0% | inhibition at 0.5 µM (Lck): 0% | Src protein expression / phosphorylation (K562 cells [1]): significant accumulation | STAT5 phosphorylation (K562 cells [1]): stronger effect | Expression of the ABL gene (mRNA) (K562 cells [2]): significantly enhanced | SRC mRNA levels (K562 cells [2]): significant decrease

COc1ccccc1/C=C/c1nc(Sc2cccc(O)c2)c2ccccc2n1 [IS8, 3-{2-[(E)-2–(2-methoxyphenyl)ethenyl]quinazolin-4-ylthio}phenol]
inhibition at 0.5 µM (Fyn A): 0% | inhibition at 0.5 µM (Lyn B): 0% | inhibition at 0.5 µM (BRK): 15.8 ± 2.25% | inhibition at 0.5 µM (Lck): 0% | Inhibition of STAT5 phosphorylation at Tyr694 (K562 cells [1]; 12 and 6 µM): 1.5 fold | ABL phosphorylation (K562 cells [1]): significant decrease (about two-fold) | AIF protein (K562 cells [1]): significant increase | Decrease of the level of BID (K562 cells [1]): approximately 2 fold | Src protein expression / phosphorylation (K562 cells [1]): almost two-fold decrease | p27 expression (K562 cells [1]): more than two-fold increase | Inhibition of expression of Ser473 phosphorylated Akt (K562 cells [1]): more than two-fold | Cyclin E1 protein level (K562 cells [1]): significantly downregulated | CCNE2 expression (mRNA) (K562 cells [2]): significant decrease

COc1ccccc1/C=C/c1nc(Sc2ccccc2Cl)c2ccccc2n1 [IS1, 2-[(E)-2–(2-methoxyphenyl)ethenyl]-4–(2-chlorophenylthio)quinazoline]
inhibition at 0.5 µM (Fyn A): 90.4 ± 9.9% | inhibition at 0.5 µM (Lyn B): 67.1 ± 5.1% | Inhibition of tyrosine kinase activity [%] BRK (BRK; 0.5 μM): 51.27 ± 9.04% | inhibition at 0.5 µM (BRK): 51% | Inhibition of tyrosine kinase activity [%] Lck (Lck; 0.5 μM): 79.08 ± 3.51% | inhibition at 0.5 µM (Lck): 79% | ABL phosphorylation (K562 cells [1]): ineffective | AIF protein (K562 cells [1]): significant increase | Fyn expression (K562 cells [1]): downregulation | Src protein expression / phosphorylation (K562 cells [1]): ineffective | STAT5 phosphorylation (K562 cells [1]): ineffective | Expression of the ABL gene (mRNA) (K562 cells [2]): slight non-significant decrease | SRC mRNA levels (K562 cells [2]): significant decrease | Effect on ABL inhibition of IS1 in combination with GNF-2 (ABL): significantly attenuated inhibition; also recorded: antagonistic outcome | Effect on ABL inhibition of IS1 in combination with dasatinib (ABL): virtually no effect | Effect on ABL inhibition of IS1 in combination with imatinib (ABL): synergistic effect

COc1ccccc1/C=C/c1nc(Sc2ccc3c(c2)OCO3)c2ccccc2n1 [IS10, 5-{2-[(E)-2–(2-methoxyphenyl)ethenyl]quinazolin-4-ylthio}-2H-1,3-benzodioxole]
inhibition at 0.5 µM (Fyn A): 21.5 ± 5.71% | inhibition at 0.5 µM (Lyn B): 0% | inhibition at 0.5 µM (BRK): 25 ± 8.51% | inhibition at 0.5 µM (Lck): 28.1 ± 5.74% | Decrease in p-STAT5 expression (K562 cells [1]; 20 µM): more than three-fold decrease | ABL phosphorylation (K562 cells [1]): significant decrease (about two-fold) | Decrease of the level of BID (K562 cells [1]): approximately 2 fold | Src protein expression / phosphorylation (K562 cells [1]): almost two-fold decrease | p27 expression (K562 cells [1]): more than two-fold increase | Inhibition of expression of Ser473 phosphorylated Akt (K562 cells [1]): more than two-fold | Cyclin E1 protein level (K562 cells [1]): significantly downregulated | CCNE2 expression (mRNA) (K562 cells [2]): significant decrease | Expression of the ABL gene (mRNA) (K562 cells [2]): significantly enhanced
